The subject of series [1] is human APOE RNA. Nature of the series: Activity in APOE C57BL/6NTac-Apoeem7250 knock-in mice, single ICV bolus, 8 weeks (Example 11). The class given is in vivo. Conditions: single ICV bolus 300 μg, 8 weeks post treatment, normalized to mouse Ppia. As to the method:
(§1) Modified oligonucleotides described above were tested in the APOE C57BL/6NTac-Apoeem7250 knock-in mouse model described above.
Each mouse received a single ICV bolus of 300 μg of modified oligonucleotide. A group of 3-4 mice received a single ICV bolus with PBS as a negative control.
Eight weeks post treatment, mice were sacrificed and RNA was extracted from cortical brain tissue and spinal cord for quantitative real-time RT-PCR analysis of RNA expression of APOE using human primer probe set RTS3073 (described herein above). APOE RNA levels were normalized to mouse Ppia. Mouse Ppia was amplified using primer probe set m_cyclo24 (described herein above). Results are presented as percent human APOE RNA relative to the amount of human APOE RNA in PBS treated animals, (% control). Each experiment is identified in separate tables below.

For series [2], the system named is human APOE RNA. Nature of the series: Activity in APOE C57BL/6NTac-Apoeem7250 knock-in mice, single ICV bolus, 16 weeks (Example 12). The class given is in vivo. Conditions: single ICV bolus 300 μg, 16 weeks post treatment, normalized to mouse Ppia. As to the method: as §1
APOE C57BL/6NTac-Apoeem7250 knock-in mice were divided into groups of 3-4 mice each. Each mouse received a single intracerebroventricular (ICV) bolus of 300 μg of modified oligonucleotide. A group of 4 mice received a single ICV bolus with PBS as a negative control.
Sixteen weeks post treatment, mice were sacrificed and RNA was extracted from cortical brain tissue and spinal cord for quantitative real-time RT-PCR analysis of RNA expression of APOE using primer probe set RTS3073 (described herein above). APOE RNA levels were normalized to mouse Ppia. Mouse Ppia was amplified using primer probe set m_cyclo24 (described herein above). Results are presented as percent human APOE RNA relative to the amount of human APOE RNA in PBS treated animals, (% control). Each experiment is identified in separate tables below.

Strand notation (5' to 3'): a small letter for the sugar, then the base; units joined by * are phosphorothioate-linked, units joined directly phosphodiester-linked; [ ] holds rarer units or linkages, { } end groups; capitals alone tell only the bases. [ms] = mesyl phosphoramidate linkage; e = 2'-O-(2-methoxyethyl) (MOE); k = constrained ethyl (cEt); [5mC] = 5-methylcytosine; d = 2'-deoxy (DNA)

Turning to “1652913: 5-10-5 MOE gapmer GGTGAATCTTTATTAAACTA, linkages soooszssssszsszooss (antisense eG*eGeTeGeA*dA[ms]dT*d[5mC]*dT*dT*dT*dA[ms]dT*dT*dA[ms]eAeAe[5mC]*eT*eA) [compound 1652913]”, in the series with human APOE RNA [1], the “APOE RNA (% control) Cortex” value was 75 % control and the “APOE RNA (% control) Spinal Cord” value was determined as 33 % control.
In the case of “1809691: mixed MOE/cEt gapmer CTTGGTGAATCTTTATTAA, sugar eeeekddddddddddkeek, linkages sosssszzzssssszoss (e[5mC]*eTeT*eG*kG*dT*dG[ms]dA[ms]dA[ms]dT*d[5mC]*dT*dT*dT*dA[ms]kTeT*eA*kA) [compound 1809691]”, in the series with human APOE RNA [1], the “APOE RNA (% control) Cortex” value is reported as 27 % control and the “APOE RNA (% control) Spinal Cord” value is reported as 17 % control.
As to “1652905: 6-10-4 MOE gapmer GGTGAATCTTTATTAAACTA, linkages sooossssssssssssoss (antisense eG*eGeTeGeA*eA*dT*d[5mC]*dT*dT*dT*dA*dT*dT*dA*dA*eAe[5mC]*eT*eA) [compound 1652905]”, in the series on human APOE RNA [1], the “APOE RNA (% control) Cortex” value stood at 44 % control and the “APOE RNA (% control) Spinal Cord” value turned out to be 15 % control.
For “1809741: mixed MOE/cEt gapmer CTTGGTGAATCTTTATTAAAC, sugar eeeeekddddddddddeeeee, linkages ssoooszzsssssszsooss (e[5mC]*eT*eTeGeGkT*dG[ms]dA[ms]dA*dT*d[5mC]*dT*dT*dT*dA[ms]dT*eTeAeA*eA*e[5mC]) [compound 1809741]” the same measures were 33 % control and 28 % control.
For “1809688: mixed MOE/cEt gapmer CTTGGTGAATCTTTATTAA, sugar eeeekddddddddddkkee, linkages sosssszzzssssszoss (e[5mC]*eTeT*eG*kG*dT*dG[ms]dA[ms]dA[ms]dT*d[5mC]*dT*dT*dT*dA[ms]kTkT*eA*eA) [compound 1809688]” the same measures were 22 % control and 37 % control.
Turning to “1652910: 5-10-5 MOE gapmer GGTGAATCTTTATTAAACTA, linkages sooosszzsssssssooss (antisense eG*eGeTeGeA*dA*dT[ms]d[5mC][ms]dT*dT*dT*dA*dT*dT*dA*eAeAe[5mC]*eT*eA) [compound 1652910]”, in the series with human APOE RNA [1], the “APOE RNA (% control) Cortex” value is 82 % control and the “APOE RNA (% control) Spinal Cord” value was found to be 39 % control.
With “1652917: 6-10-4 MOE gapmer GGTGAATCTTTATTAAACTA, linkages sooooossssszsszzoss (antisense eG*eGeTeGeAeAdT*d[5mC]*dT*dT*dT*dA[ms]dT*dT*dA[ms]dA[ms]eAe[5mC]*eT*eA) [compound 1652917]”, in the series on human APOE RNA [1], the “APOE RNA (% control) Cortex” value turned out to be 107 % control and the “APOE RNA (% control) Spinal Cord” value was 41 % control.
The matching figures for “1652908: 5-10-5 MOE gapmer GGTGAATCTTTATTAAACTA, linkages soooszzzsssssssooss (antisense eG*eGeTeGeA*dA[ms]dT[ms]d[5mC][ms]dT*dT*dT*dA*dT*dT*dA*eAeAe[5mC]*eT*eA) [compound 1652908]”: 54 % control and 18 % control.
For “1652899: 6-10-4 MOE gapmer TGGTGAATCTTTATTAAACT, linkages sooooossssssssssoss (antisense eT*eGeGeTeGeAdA*dT*d[5mC]*dT*dT*dT*dA*dT*dT*dA*eAeA*e[5mC]*eT) [compound 1652899]” the same measures were 57 % control and 16 % control.
With “1810063: mixed MOE/cEt gapmer CTTGGTGAATCTTTATTAAAC, sugar eeeeeeddddddddddkkeee, linkages ssoosszzzssssszsooss (e[5mC]*eT*eTeGeG*eT*dG[ms]dA[ms]dA[ms]dT*d[5mC]*dT*dT*dT*dA[ms]dT*kTkAeA*eA*e[5mC]) [compound 1810063]”, in the series on human APOE RNA [1], the “APOE RNA (% control) Cortex” value is given as 43 % control and the “APOE RNA (% control) Spinal Cord” value came to 40 % control.
As to “1652907: 5-10-5 MOE gapmer GGTGAATCTTTATTAAACTA, linkages soooszzssssssssooss (antisense eG*eGeTeGeA*dA[ms]dT[ms]d[5mC]*dT*dT*dT*dA*dT*dT*dA*eAeAe[5mC]*eT*eA) [compound 1652907]”, in the series with human APOE RNA [1], the “APOE RNA (% control) Cortex” value stood at 54 % control and the “APOE RNA (% control) Spinal Cord” value came out at 16 % control.
For “1809745: mixed MOE/cEt gapmer CTTGGTGAATCTTTATTAAAC, sugar eeeeekddddddddddeeeee, linkages zsoooszzsssssszsoosz (e[5mC][ms]eT*eTeGeGkT*dG[ms]dA[ms]dA*dT*d[5mC]*dT*dT*dT*dA[ms]dT*eTeAeA*eA[ms]e[5mC]) [compound 1809745]” the same measures were 26 % control and 16 % control.
In the case of “1693100: 6-10-4 MOE gapmer CTTGGTGAATCTTTATTAAA, linkages sssssszzzssssszsoss (e[5mC]*eT*eT*eG*eG*eT*dG[ms]dA[ms]dA[ms]dT*d[5mC]*dT*dT*dT*dA[ms]dT*eTeA*eA*eA) [compound 1693100]”, in the series with human APOE RNA [2], the “APOE RNA (% control) Cortex” value is reported as 87 % control and the “APOE RNA (% control) Spinal Cord” value is listed as 51 % control.
For “1693063: 5-10-5 MOE gapmer TTGGTGAATCTTTATTAAAC, linkages ssssszzzsssszzsssss (antisense eT*eT*eG*eG*eT*dG[ms]dA[ms]dA[ms]dT*d[5mC]*dT*dT*dT[ms]dA[ms]dT*eT*eA*eA*eA*e[5mC]) [compound 1693063]”, in the series on human APOE RNA [2], the “APOE RNA (% control) Cortex” value came out at 97 % control and the “APOE RNA (% control) Spinal Cord” value is 87 % control.
“1693142: 6-10-4 MOE gapmer ACTTGGTGAATCTTTATTAA, linkages sssoosszzzssssszsss (eA*e[5mC]*eT*eTeGeG*dT*dG[ms]dA[ms]dA[ms]dT*d[5mC]*dT*dT*dT*dA[ms]eT*eT*eA*eA) [compound 1693142]”: in the series with human APOE RNA [2], the “APOE RNA (% control) Cortex” value was 98 % control and the “APOE RNA (% control) Spinal Cord” value was 92 % control.
For “1693073: 5-10-5 MOE gapmer ACTTGGTGAATCTTTATTAA, linkages sssossszzzzzsssssss (eA*e[5mC]*eT*eTeG*dG*dT*dG[ms]dA[ms]dA[ms]dT[ms]d[5mC][ms]dT*dT*dT*eA*eT*eT*eA*eA) [compound 1693073]” the same measures were 107 % control and 52 % control.
On to “1693110: 6-10-4 MOE gapmer CTTGGTGAATCTTTATTAAA, linkages sssssszzzsssszzssss (e[5mC]*eT*eT*eG*eG*eT*dG[ms]dA[ms]dA[ms]dT*d[5mC]*dT*dT*dT[ms]dA[ms]dT*eT*eA*eA*eA) [compound 1693110]”, for which, in the series on human APOE RNA [2], the “APOE RNA (% control) Cortex” value amounted to 113 % control and the “APOE RNA (% control) Spinal Cord” value was 92 % control.
For “1693061: 5-10-5 MOE gapmer TTGGTGAATCTTTATTAAAC, linkages sssoszzzsssszzsssss (antisense eT*eT*eG*eGeT*dG[ms]dA[ms]dA[ms]dT*d[5mC]*dT*dT*dT[ms]dA[ms]dT*eT*eA*eA*eA*e[5mC]) [compound 1693061]”, in the series on human APOE RNA [2], the “APOE RNA (% control) Cortex” value is given as 91 % control and the “APOE RNA (% control) Spinal Cord” value is 99 % control.

Source of the values: patent US20250353873A1, “COMPOUNDS AND METHODS FOR MODULATING APOE EXPRESSION” (Ionis Pharmaceuticals, Inc., priority 2024, published 2025).
